Measurements published in publication PMC5218480 (PLoS ONE, 2017).

Test system: MV-4-11 cells
Assay: Gene expression microarray analysis (Affymetrix PrimeView) and GSEA
Format: cell-based, human
Design: RFU PODN (11730768_x_at) / Fold change /veh PODN (11730768_x_at) / RFU LINC00158 (11744669_a_at) / Fold change /veh LINC00158 (11744669_a_at) / RFU DUSP10 (11751237_a_at) / Fold change /veh DUSP10 (11751237_a_at) / RFU ID3 (11757404_x_at) / Fold change /veh ID3 (11757404_x_at) / RFU PLEKHG5 (11737974_s_at) / Fold change /veh PLEKHG5 (11737974_s_at) / RFU LRRC4B (11730491_at) / Fold change /veh LRRC4B (11730491_at) / RFU GIMAP4 (11747438_a_at) / Fold change /veh GIMAP4 (11747438_a_at) / RFU KRT8 (11758183_x_at) / Fold change /veh KRT8 (11758183_x_at) / RFU CNN1 (11734310_a_at) / Fold change /veh CNN1 (11734310_a_at) / RFU VPS37D (11726825_at) / Fold change /veh VPS37D (11726825_at) / RFU C10orf10 (11716522_x_at) / Fold change /veh C10orf10 (11716522_x_at) / RFU KIR2DL2 /// KIR2DL4 /// KIR2DL5A /// KIR2DL5B /// KIR2DS1 /// KIR2DS2 /// KIR2DS3 /// KIR2DS4 /// KIR3DL3 /// KIR3DL3 /// KIR3DS1 (11738374_at) / Fold change /veh KIR2DL2 /// KIR2DL4 /// KIR2DL5A /// KIR2DL5B /// KIR2DS1 /// KIR2DS2 /// KIR2DS3 /// KIR2DS4 /// KIR3DL3 /// KIR3DL3 /// KIR3DS1 (11738374_at) / RFU C1QL1 (11718748_at) / Fold change /veh C1QL1 (11718748_at) / RFU TMPRSS4 (11747572_a_at) / Fold change /veh TMPRSS4 (11747572_a_at) / RFU HAMP (11756126_x_at) / Fold change /veh HAMP (11756126_x_at) / RFU RNFT2 (11725882_a_at) / Fold change /veh RNFT2 (11725882_a_at) / RFU NR4A2 (11747474_a_at) / Fold change /veh NR4A2 (11747474_a_at) / RFU ABCC12 (11746883_a_at) / Fold change /veh ABCC12 (11746883_a_at) / RFU TMEM136 (11760407_x_at) / Fold change /veh TMEM136 (11760407_x_at) / RFU CLDN22 /// WWC2 (11732394_at) / Fold change /veh CLDN22 /// WWC2 (11732394_at) / RFU HLA-DPB1 (11760878_x_at) / Fold change /veh HLA-DPB1 (11760878_x_at) / RFU SPINT1 (11716480_a_at) / Fold change /veh SPINT1 (11716480_a_at) / RFU GAP43 (11754022_s_at) / Fold change /veh GAP43 (11754022_s_at) / RFU A4GNT (11735810_at) / Fold change /veh A4GNT (11735810_at) / RFU PRB3 (11715151_x_at) / Fold change /veh PRB3 (11715151_x_at) / RFU TUBB4B (11761932_at) / Fold change /veh TUBB4B (11761932_at) / RFU CAPN14 (11732068_a_at) / Fold change /veh CAPN14 (11732068_a_at) / RFU TMCC2 (11721928_a_at) / Fold change /veh TMCC2 (11721928_a_at) / RFU IRGQ (11745062_a_at) / Fold change /veh IRGQ (11745062_a_at) / RFU FAM174B (11720279_a_at) / Fold change /veh FAM174B (11720279_a_at) / RFU TMPRSS4 (11748680_a_at) / Fold change /veh TMPRSS4 (11748680_a_at) / RFU FAM212B (11763350_a_at) / Fold change /veh FAM212B (11763350_a_at) / RFU PLEKHG5 (11743358_a_at) / Fold change /veh PLEKHG5 (11743358_a_at) / RFU ZSCAN30 (11745921_a_at) / Fold change /veh ZSCAN30 (11745921_a_at) / RFU CMKLR1 (11741424_a_at) / Fold change /veh CMKLR1 (11741424_a_at) / RFU LOC101060620 /// MAPK8IP1 (11723275_at) / Fold change /veh LOC101060620 /// MAPK8IP1 (11723275_at) / RFU SPTSSB (11747773_x_at) / Fold change /veh SPTSSB (11747773_x_at) / RFU PRSS12 (11739890_at) / Fold change /veh PRSS12 (11739890_at) / RFU BIN1 (11741810_x_at) / Fold change /veh BIN1 (11741810_x_at) / RFU WNT11 (11732464_a_at) / Fold change /veh WNT11 (11732464_a_at) / RFU C10orf10 (11716521_a_at) / Fold change /veh C10orf10 (11716521_a_at) / RFU C5orf56 (11738089_at) / Fold change /veh C5orf56 (11738089_at) / RFU CYB561 (11721691_x_at) / Fold change /veh CYB561 (11721691_x_at) / RFU ANKRD19P (11752326_a_at) / Fold change /veh ANKRD19P (11752326_a_at) / RFU OR2T12 /// OR2T33 /// OR2T8 (11738714_s_at) / Fold change /veh OR2T12 /// OR2T33 /// OR2T8 (11738714_s_at) / RFU VCAN (11748164_a_at) / Fold change /veh VCAN (11748164_a_at) / RFU JSRP1 (11732532_at) / Fold change /veh JSRP1 (11732532_at) / RFU KRTAP10-11 (11738290_x_at) / Fold change /veh KRTAP10-11 (11738290_x_at) / RFU MYO3A (11730013_a_at) / Fold change /veh MYO3A (11730013_a_at) / RFU EBF3 (11725865_a_at) / Fold change /veh EBF3 (11725865_a_at) / RFU CAMK2N1 (11719241_x_at) / Fold change /veh CAMK2N1 (11719241_x_at) / RFU C5orf56 (11738088_a_at) / Fold change /veh C5orf56 (11738088_a_at) / RFU OLFML3 (11715873_a_at) / Fold change /veh OLFML3 (11715873_a_at) / RFU LOC100653217 /// NTM (11731650_a_at) / Fold change /veh LOC100653217 /// NTM (11731650_a_at) / RFU MAPK11 (11762145_a_at) / Fold change /veh MAPK11 (11762145_a_at) / RFU FIZ1 (11724087_x_at) / Fold change /veh FIZ1 (11724087_x_at) / RFU OASL (11726364_x_at) / Fold change /veh OASL (11726364_x_at) / RFU SOX15 (11748057_x_at) / Fold change /veh SOX15 (11748057_x_at) / RFU CD79A (11719716_a_at) / Fold change /veh CD79A (11719716_a_at) / RFU HIST1H1D (11736915_at) / Fold change /veh HIST1H1D (11736915_at) / RFU CASKIN2 (11723855_a_at) / Fold change /veh CASKIN2 (11723855_a_at) / RFU LOC730098 (11760151_x_at) / Fold change /veh LOC730098 (11760151_x_at) / RFU OR4N2 (11742367_at) / Fold change /veh OR4N2 (11742367_at) / RFU PRRT2 (11749266_a_at) / Fold change /veh PRRT2 (11749266_a_at) / RFU SNX32 (11753110_a_at) / Fold change /veh SNX32 (11753110_a_at) / RFU CDHR5 (11726645_a_at) / Fold change /veh CDHR5 (11726645_a_at) / RFU RCAN1 (11760418_a_at) / Fold change /veh RCAN1 (11760418_a_at) / RFU FAM167A (11723789_a_at) / Fold change /veh FAM167A (11723789_a_at) / RFU FAM26E (11764081_at) / Fold change /veh FAM26E (11764081_at) / RFU ISYNA1 (11749810_s_at) / Fold change /veh ISYNA1 (11749810_s_at) / RFU ACY1 (11761880_at) / Fold change /veh ACY1 (11761880_at) / RFU 11764098_at / Fold change /veh 11764098_at / RFU SAMD14 (11745864_x_at) / Fold change /veh SAMD14 (11745864_x_at) / RFU NPB (11741838_a_at) / Fold change /veh NPB (11741838_a_at) / RFU TMPRSS6 (11731388_a_at) / Fold change /veh TMPRSS6 (11731388_a_at) / RFU KRTAP10-2 (11738614_at) / Fold change /veh KRTAP10-2 (11738614_at) / RFU ARHGAP8 /// PRR5-ARHGAP8 (11727945_x_at) / Fold change /veh ARHGAP8 /// PRR5-ARHGAP8 (11727945_x_at) / RFU KRTAP5-7 /// NADSYN1 (11734609_at) / Fold change /veh KRTAP5-7 /// NADSYN1 (11734609_at) / RFU RASL12 (11751679_a_at) / Fold change /veh RASL12 (11751679_a_at) / RFU CDKN2B (11736163_a_at) / Fold change /veh CDKN2B (11736163_a_at) / RFU PRF1 (11729649_at) / Fold change /veh PRF1 (11729649_at) / RFU, ZNF638 /// ZNF638-IT1 / Fold change vs veh, ZNF638 /// ZNF638-IT1 / RFU, PANK3 / Fold change vs veh, PANK3 / RFU, SH3YL1 / Fold change vs veh, SH3YL1 / RFU, ZEB2 / Fold change vs veh, ZEB2 / RFU, NRIP1 / Fold change vs veh, NRIP1 / RFU, PTTG1IP / Fold change vs veh, PTTG1IP / RFU, CAPN2 / Fold change vs veh, CAPN2 / RFU, MED14 / Fold change vs veh, MED14 / RFU, SNORA58 / Fold change vs veh, SNORA58 / RFU, C1orf63 / Fold change vs veh, C1orf63 / RFU, LRRFIP1 / Fold change vs veh, LRRFIP1 / RFU, NDUFAF7 / Fold change vs veh, NDUFAF7 / RFU, SLC12A2 / Fold change vs veh, SLC12A2 / RFU, IBTK / Fold change vs veh, IBTK / RFU, ESF1 / Fold change vs veh, ESF1 / Fold change vs veh, TMEM50B / RFU, TAOK1 / Fold change vs veh, TAOK1 / RFU, ACBD3 / Fold change vs veh, ACBD3 / RFU, TMA16 / Fold change vs veh, TMA16 / RFU, RWDD3 / Fold change vs veh, RWDD3 / RFU, BCAT1 / Fold change vs veh, BCAT1 / RFU, EDEM3 / Fold change vs veh, EDEM3 / RFU, TMEM33 / Fold change vs veh, TMEM33 / RFU, WDR75 / Fold change vs veh, WDR75 / RFU, AHCTF1 / Fold change vs veh, AHCTF1 / RFU, TFRC / Fold change vs veh, TFRC / RFU, ZDHHC17 / Fold change vs veh, ZDHHC17 / RFU, NOM1 / Fold change vs veh, NOM1 / RFU, ARL8B / Fold change vs veh, ARL8B / RFU, ZBTB11 / Fold change vs veh, ZBTB11 / RFU, TAMM41 / Fold change vs veh, TAMM41 / RFU, KIAA1704 /// LOC100996395 / Fold change vs veh, KIAA1704 /// LOC100996395 / RFU, ING1 / Fold change vs veh, ING1 / RFU, TRMT61B / Fold change vs veh, TRMT61B / RFU, FUBP3 / Fold change vs veh, FUBP3 / RFU, TP53 / Fold change vs veh, TP53 / RFU, TNKS2 / Fold change vs veh, TNKS2 / RFU, ZFP14 / Fold change vs veh, ZFP14 / RFU, ACTR2 / Fold change vs veh, ACTR2 / RFU, PPP3R1 / Fold change vs veh, PPP3R1 / RFU, PIK3R1 / Fold change vs veh, PIK3R1 / RFU, HNRNPA1 / Fold change vs veh, HNRNPA1 / RFU, RNF170 / Fold change vs veh, RNF170 / RFU, ZNF28 / Fold change vs veh, ZNF28 / RFU, RNGTT / Fold change vs veh, RNGTT / RFU, OGT / Fold change vs veh, OGT / RFU, BRD1 / Fold change vs veh, BRD1 / RFU, MARS / Fold change vs veh, MARS / RFU, ZNF655 / Fold change vs veh, ZNF655 / RFU, FAHD1 / Fold change vs veh, FAHD1 / RFU, BDP1 / Fold change vs veh, BDP1 / RFU, LRRCC1 / Fold change vs veh, LRRCC1 / RFU, ARID1A / Fold change vs veh, ARID1A / RFU, ZNF146 / Fold change vs veh, ZNF146 / RFU, ZNF330 / Fold change vs veh, ZNF330 / RFU, GPN3 / Fold change vs veh, GPN3 / RFU, C9orf123 / Fold change vs veh, C9orf123 / RFU, N4BP2L2 / Fold change vs veh, N4BP2L2 / RFU, ARFIP1 / Fold change vs veh, ARFIP1 / RFU, FAM179B / Fold change vs veh, FAM179B / RFU, BCL10 / Fold change vs veh, BCL10 / RFU, UHRF1BP1L / Fold change vs veh, UHRF1BP1L / RFU, BET1 / Fold change vs veh, BET1 / RFU, CNOT2 / Fold change vs veh, CNOT2 / RFU, ZNF268 / Fold change vs veh, ZNF268 / Fold change vs veh, ZNF507 / RFU, DGCR2 / Fold change vs veh, DGCR2 / RFU, WDSUB1 / Fold change vs veh, WDSUB1 / Fold change vs veh, HSP90B1 /// MIR3652 / RFU, ADSS / Fold change vs veh, ADSS / RFU, GK / Fold change vs veh, GK / RFU, ZNF148 / Fold change vs veh, ZNF148 / RFU, TAF9 / Fold change vs veh, TAF9 / RFU, SLC1A5 / Fold change vs veh, SLC1A5 / RFU, SLMO2 / Fold change vs veh, SLMO2 / RFU, ABCC4 / Fold change vs veh, ABCC4 / RFU, LOC101060439 /// RAP1B / Fold change vs veh, LOC101060439 /// RAP1B / RFU, RFX7 / Fold change vs veh, RFX7 / RFU, GTPBP10 / Fold change vs veh, GTPBP10 / RFU, CNEP1R1 / Fold change vs veh, CNEP1R1 / RFU, BIVM-ERCC5 /// ERCC5 / Fold change vs veh, BIVM-ERCC5 /// ERCC5 / RFU, ILF3 / Fold change vs veh, ILF3 / RFU 11762660_at / Fold change /veh 11762660_at / RFU VCAN (11757783_s_at) / Fold change /veh VCAN (11757783_s_at) / RFU DDX43 (11728927_at) / Fold change /veh DDX43 (11728927_at) / RFU KRT8 (11758188_x_at) / Fold change /veh KRT8 (11758188_x_at) / RFU NKD1 (11759106_at) / Fold change /veh NKD1 (11759106_at) / RFU SRD5A1 (11742802_a_at) / Fold change /veh SRD5A1 (11742802_a_at) / RFU TPSAB1 /// TPSB2 (11721975_s_at) / Fold change /veh TPSAB1 /// TPSB2 (11721975_s_at) / RFU GSTM3 (11746129_a_at) / Fold change /veh GSTM3 (11746129_a_at) / RFU IL23R (11737362_x_at) / Fold change /veh IL23R (11737362_x_at) / RFU TMEM51 (11727254_a_at) / Fold change /veh TMEM51 (11727254_a_at) / RFU PIWIL2 (11732686_x_at) / Fold change /veh PIWIL2 (11732686_x_at) / RFU ORM1 (11744905_x_at) / Fold change /veh ORM1 (11744905_x_at) / RFU CCDC152 (11743942_at) / Fold change /veh CCDC152 (11743942_at) / RFU ECM1 (11717891_a_at) / Fold change /veh ECM1 (11717891_a_at) / RFU IL23R (11748794_a_at) / Fold change /veh IL23R (11748794_a_at) / RFU TNFAIP8L3 (11732012_x_at) / Fold change /veh TNFAIP8L3 (11732012_x_at) / RFU MBOAT4 (11741988_at) / Fold change /veh MBOAT4 (11741988_at) / RFU 11764193_at / Fold change /veh 11764193_at / RFU TMEM53 (11763286_at) / Fold change /veh TMEM53 (11763286_at) / RFU MAGEB2 (11727129_at) / Fold change /veh MAGEB2 (11727129_at) / RFU TMEM200A (11744735_a_at) / Fold change /veh TMEM200A (11744735_a_at) / RFU CCDC152 (11751479_a_at) / Fold change /veh CCDC152 (11751479_a_at) / RFU FAM211A (11726209_a_at) / Fold change /veh FAM211A (11726209_a_at) / RFU RGS16 (11746705_a_at) / Fold change /veh RGS16 (11746705_a_at) / RFU VCAN (11755009_s_at) / Fold change /veh VCAN (11755009_s_at) / RFU RHOB (11743442_s_at) / Fold change /veh RHOB (11743442_s_at) / RFU RGS16 (11720943_a_at) / Fold change /veh RGS16 (11720943_a_at) / RFU RGS16 (11720944_at) / Fold change /veh RGS16 (11720944_at) / RFU, VPS4B / Fold change vs veh, VPS4B / RFU, CREB1 / Fold change vs veh, CREB1 / RFU, DNAJC13 / Fold change vs veh, DNAJC13 / RFU, GNAQ / Fold change vs veh, GNAQ / RFU, CDK5R1 / Fold change vs veh, CDK5R1 / RFU, ZRANB3 / Fold change vs veh, ZRANB3 / RFU, CUL4A / Fold change vs veh, CUL4A / RFU, CCNY / Fold change vs veh, CCNY / RFU, UFL1 / Fold change vs veh, UFL1 / RFU, COG3 / Fold change vs veh, COG3 / RFU, DIAPH2 / Fold change vs veh, DIAPH2 / RFU, SKA2 / Fold change vs veh, SKA2 / RFU, AFF3 / Fold change vs veh, AFF3 / RFU, LMF1 / Fold change vs veh, LMF1 / RFU, IPO11 / Fold change vs veh, IPO11 / RFU, DFFB / Fold change vs veh, DFFB / RFU, FOXP1 / Fold change vs veh, FOXP1 / RFU, CARD8 / Fold change vs veh, CARD8 / RFU, STRN3 / Fold change vs veh, STRN3 / RFU, ADK / Fold change vs veh, ADK / RFU, RASSF2 / Fold change vs veh, RASSF2 / RFU, WIPF1 / Fold change vs veh, WIPF1 / RFU, LARP1B / Fold change vs veh, LARP1B / RFU, RASA1 / Fold change vs veh, RASA1 / RFU, RB1 / Fold change vs veh, RB1 / RFU, PPFIA1 / Fold change vs veh, PPFIA1 / RFU, MAT2A / Fold change vs veh, MAT2A / RFU, CCT5 / Fold change vs veh, CCT5 / RFU, WDR92 / Fold change vs veh, WDR92 / RFU, CUX1 / Fold change vs veh, CUX1 / RFU, TTC7A / Fold change vs veh, TTC7A / RFU, TMEM135 / Fold change vs veh, TMEM135 / RFU, DEPTOR / Fold change vs veh, DEPTOR / RFU, CPM / Fold change vs veh, CPM / RFU, DNAJB6 / Fold change vs veh, DNAJB6 / RFU, CACNA2D3 / Fold change vs veh, CACNA2D3 / RFU, DTX4 / Fold change vs veh, DTX4 / RFU, TFCP2 / Fold change vs veh, TFCP2 / RFU, GMCL1 /// GMCL1P1 / Fold change vs veh, GMCL1 /// GMCL1P1 / RFU, AEBP2 / Fold change vs veh, AEBP2 / RFU, SNHG1 /// SNORD22 /// SNORD25 /// SNORD26 /// SNORD27 /// SNORD28 /// SNORD29 /// SNORD31 / Fold change vs veh, SNHG1 /// SNORD22 /// SNORD25 /// SNORD26 /// SNORD27 /// SNORD28 /// SNORD29 /// SNORD31 / Fold change (Aza/veh), C12orf56 (ProbeSet 11735607_a_at) / Fold change (ACY-1035/veh), C12orf56 (ProbeSet 11735607_a_at) / Fold change (Aza/veh), FGFR1OP (ProbeSet 11751329_s_at) / Fold change (ACY-1035/veh), FGFR1OP (ProbeSet 11751329_s_at) / Fold change (Aza/veh), VPS36 (ProbeSet 11739960_a_at) / Fold change (ACY-1035/veh), VPS36 (ProbeSet 11739960_a_at) / RFU SYPL1 (11715823_x_at) / Fold change /veh SYPL1 (11715823_x_at) / RFU IGFBP7 (11715501_s_at) / Fold change /veh IGFBP7 (11715501_s_at) / RFU REEP3 (11722064_at) / Fold change /veh REEP3 (11722064_at) / RFU IGLL1 (11728026_x_at) / Fold change /veh IGLL1 (11728026_x_at): dose or concentration left out as unconfirmed
Details: ProbeSet 11746640_a_at; LIST D

Nc1ncn([C@@H]2O[C@H](CO)[C@@H](O)[C@H]2O)c(=O)n1 [azacitidine]
Fold change vs veh, RASSF2: 0.77
